Reference: patent US11046722B2, “Sulphated disaccharides for the treatment of neuropathic pain” (BIOIBERICA, S.A.U., priority 2017, dated 2021)

Tests used:
[1] = tested on: cold allodynia induced in mice by subcutaneous carrageenan injection; test: Cold allodynia induced by subcutaneous carrageenan injection (acetone test, time spent licking the paw); assay type: in vivo; conditions: carrageenan 1% 50 μl s.c., 60 mg/Kg orally 3.5 hours after injection, acetone test 45 minutes after treatment
From the text: In Example 4 an experimental model is used of cold allodynia induced in mice by subcutaneous carrageenan injection, as described in the article by Choi et al., Behavioral signs of ongoing pain and cold allodynia in a rat model of neuropathic pain, Pain, 1994, 59 (3), 369-376. This trial is based on causing cold allodynia in mice by subcutaneous carrageenan injection in the plantar surface of one of the hind paws of the animals, and subsequently measuring the sensitivity to cold by applying acetone on the plantar surface of both hind paws: the ipsilateral (the same one where the carrageenan was injected) and the contralateral (the unsensitized hind paw). The sensitivity to cold is quantified by measuring the time the animals spent licking the paw for 5 minutes after the application of the acetone. As described in such example, compound Ic is effective in reversing the cold allodynia according to this model (FIG. 6).
In this trial 16 mice were used to which 50 μl of a carrageenan solution at 1% were administered by subcutaneous injection in the plantar surface of one of the hind paws. After 3.5 hours since the injection, 60 mg/Kg of the Ic compound was administered orally to 9 of the animals, while only the vehicle (saline solution) was administered to the remaining 7 (control group). […]

[2] = tested on: allodynia induced in mice by injecting paclitaxel; test: Neuropathic pain induced by chemotherapy (paclitaxel): prevention by coadministration with paclitaxel; assay type: in vivo; conditions: 30 mg/Kg orally daily for 5 consecutive days coadministered with paclitaxel, evaluated on the 10th day
Procedure: In Example 3 an experimental model is used in mice based on inducing allodynia by intraperitoneal injection of paclitaxel, as described in the articles by Smith et al., Paclitaxel-induced neuropathic hypersensitivity in mice: responses in 10 inbred mouse strains, Life Sci., 2014, 2593-2604 and Palomano et al., Chemotherapy-evoked painful peripheral neuropathy, Pain Med., 2001, 2 (1), 8-14. In alternative trials, compound Ic was administered after allodynia induction by paclitaxel, or it was administered jointly with this chemotherapy medication. […]
In this test, groups of mice between 7 and 12 animals were used, to which a daily dose of paclitaxel of 2 mg/Kg was administered by intraperitoneal route for 5 consecutive days (except for the control group). The evaluation of the induced mechanical allodynia was carried out on the 10th day after the first paclitaxel injection, and was quantified by using the von Frey filaments, according to the force threshold necessary to cause the paw withdrawal of the animal.
A second trial was carried out using this same model, according to which a daily dose of compound Ic was administered orally, for 5 consecutive days, coadministered with paclitaxel. The allodynia was evaluated the 10th day after the beginning of the treatment. […]

For `CO[C@H]1O[C@H](COS(=O)(=O)[O-])[C@@H](OS(=O)(=O)[O-])[C@H](O[C@@H]2O[C@H](C(=O)[O-])[C@@H](O)[C@H](O)[C@H]2O)[C@H]1NC(C)=O.[Na+].[Na+].[Na+]` [Compound Ic, methyl 2-acetamido-2-desoxi-3-O-(β-D-glucopyranosyluronic acid)-4,6-di-O-sulfo-α-D-glucopyranoside trisodium salt], the “reversal of cold allodynia (ipsilateral paw)” value [1] was “completely reversed” and the “prevention of the development of allodynia” value [2] was “prevented the development of allodynia”.
